For 29 compounds, IC50 results are on record in US12540129B2, “KIF18A inhibitors” (AMGEN INC., priority 2019, dated 2026).

T1 sequence (Q8NI77 1-467): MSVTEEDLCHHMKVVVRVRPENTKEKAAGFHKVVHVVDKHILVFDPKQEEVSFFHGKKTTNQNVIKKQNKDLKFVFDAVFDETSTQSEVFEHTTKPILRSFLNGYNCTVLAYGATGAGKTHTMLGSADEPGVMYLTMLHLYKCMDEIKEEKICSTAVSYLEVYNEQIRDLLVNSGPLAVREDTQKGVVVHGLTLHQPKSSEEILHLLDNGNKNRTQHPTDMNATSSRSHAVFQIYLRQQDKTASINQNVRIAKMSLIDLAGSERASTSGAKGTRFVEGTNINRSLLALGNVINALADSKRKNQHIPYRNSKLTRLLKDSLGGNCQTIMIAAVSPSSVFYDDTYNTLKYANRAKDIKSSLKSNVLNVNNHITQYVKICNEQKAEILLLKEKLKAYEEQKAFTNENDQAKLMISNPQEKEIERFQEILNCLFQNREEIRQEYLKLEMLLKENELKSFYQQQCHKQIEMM
T1 sequence (P02550 whole entry partner): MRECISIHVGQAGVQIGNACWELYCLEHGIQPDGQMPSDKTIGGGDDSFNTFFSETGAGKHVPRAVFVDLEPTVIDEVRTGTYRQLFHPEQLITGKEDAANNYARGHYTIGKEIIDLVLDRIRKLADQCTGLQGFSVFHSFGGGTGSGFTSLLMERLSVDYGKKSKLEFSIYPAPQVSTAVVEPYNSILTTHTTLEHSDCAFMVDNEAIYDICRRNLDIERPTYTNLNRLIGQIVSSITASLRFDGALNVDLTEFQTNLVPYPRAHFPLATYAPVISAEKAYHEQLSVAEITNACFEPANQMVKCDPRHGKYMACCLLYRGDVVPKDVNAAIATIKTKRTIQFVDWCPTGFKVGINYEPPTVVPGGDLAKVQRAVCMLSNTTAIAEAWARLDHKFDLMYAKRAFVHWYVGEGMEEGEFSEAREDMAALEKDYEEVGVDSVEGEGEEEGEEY
T1 sequence (P02554 whole entry partner): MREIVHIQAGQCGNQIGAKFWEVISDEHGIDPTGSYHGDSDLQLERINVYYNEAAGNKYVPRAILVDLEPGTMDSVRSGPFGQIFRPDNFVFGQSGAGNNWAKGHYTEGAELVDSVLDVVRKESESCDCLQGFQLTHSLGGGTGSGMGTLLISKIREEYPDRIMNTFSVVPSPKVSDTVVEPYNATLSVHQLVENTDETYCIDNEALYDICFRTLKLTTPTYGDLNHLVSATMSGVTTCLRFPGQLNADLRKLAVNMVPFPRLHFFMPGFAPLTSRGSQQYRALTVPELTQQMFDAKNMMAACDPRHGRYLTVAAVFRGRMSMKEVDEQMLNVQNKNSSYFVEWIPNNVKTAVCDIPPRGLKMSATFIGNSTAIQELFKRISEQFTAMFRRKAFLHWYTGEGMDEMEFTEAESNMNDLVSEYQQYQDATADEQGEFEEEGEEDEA

The assay addresses T1, Recombinant human KIF18A (1-467 His-tagged) protein (Homo sapiens, UniProt Q8NI77).
T1 construct: Recombinant human KIF18A (1-467 His-tagged) protein; His; made in house
Briefly: KIF18A Enzyme Assay: microtubule-stimulated ATPase activity (ADP-Glo). It counts as biochemical. The settings on record: 30 nM KIF18A, 75 μM ATP. The text has this:
KIF18A Enzyme Assay: Microtubule-stimulated ATPase activity assay is used to measure KIF18A enzyme activity after treatment with compound. Compounds were 2-fold serially diluted in DMSO (Sigma Inc) over 22-point concentration range. Recombinant human KIF18A (1-467 His-tagged) protein was expressed using a baculovirus system and purified by affinity chromatography by Amgen Inc. Concentrations of KIF18A protein, microtubules (MT), and ATP in the reaction were optimized for standardized homogenous enzyme assay using ADP-Glorm Kinase/ATPase Assay Kit (Promega Inc). The assay measures ADP formed from the ATPase reaction. […] Read luminescence using EnVision microplate reader with ultra-luminescence module (Perkin Elmer Inc). Concentration-response curve-fitting and IC50 determination was performed using Genedata Screener Software (Standard 15.0.1, Genedata Inc) with a four-parameter logistic regression fit model.
Table A provides data for compounds exemplified in the present application and priority document thereof, as representative compounds of the present invention, as follows: chemical name (as named by either ACD software or ChemDraw (Professional 15.0)) and biological data (IC50 in μM). Ex. # refers to Example No.
With `Cc1noc(-c2cccc(NC(=O)c3ccc(NC(C)(C)CO)nc3N3CCC4(CC3)CC4)c2)n1` [Example 111-7, 6-((1-hydroxy-2-methylpropan-2-yl)amino)-N-(3-(3-methyl-1,2,4-oxadiazol-5-yl)phenyl)-2-(6-azaspiro[2.5]octan-6-yl)nicotinamide], the half-inhibitory concentration (IC50) was found to be 417 nM.

For `Cc1ccc(NC(=O)c2ccc(NC(C)(C)CO)nc2N2CCC3(CC2)CC3)cc1-c1cc[nH]n1` [Example 111-3, 6-((1-hydroxy-2-methylpropan-2-yl)amino)-N-(4-methyl-3-(1H-pyrazol-3-yl)phenyl)-2-(6-azaspiro[2.5]octan-6-yl)nicotinamide], the half-maximal inhibitory concentration (IC50) was found to be 342 nM.

For `CCC1CCN(c2ncccc2C(=O)Nc2cccc(S(=O)(=O)C3CCCC3)c2)CC1` [Example 100-15, N-(3-(cyclopentylsulfonyl)phenyl)-2-(4-ethylpiperidin-1-yl)nicotinamide], the IC50 is 850 nM.

On to `Cc1ccc(NC(=O)c2ccc(NC(C)(C)CO)nc2N2CCC3(CC2)CC3)cc1-c1ccccn1` [Example 111-10, 6-((1-hydroxy-2-methylpropan-2-yl)amino)-N-(4-methyl-3-(pyridin-2-yl)phenyl)-2-(6-azaspiro[2.5]octan-6-yl)nicotinamide], for which the concentration for half-maximal inhibition (IC50) was found to be 303 nM.

For `CC(CO)(CO)Nc1ccc(C(=O)Nc2cccc(S(=O)(=O)NC3CC3)c2)c(N2CCC3(CC2)CC3)n1` [Example 106-6, N-(3-(N-cyclopropylsulfamoyl)phenyl)-6-((1,3-dihydroxy-2-methylpropan-2-yl)amino)-2-(6-azaspiro[2.5]octan-6-yl)nicotinamide], the IC50 is 48 nM.

With `O=C(Nc1cccc(S(=O)(=O)C2CCCC2)c1)c1ccc(NC2COC2)nc1N1CCC2(CC1)CC2` [Example 103-13, N-(3-(cyclopentylsulfonyl)phenyl)-6-(oxctan-3-ylamino)-2-(6-azaspiro[2.5]octan-6-yl)nicotinamide], the IC50 was 43 nM.

On to `O=C(Nc1cccc(S(=O)(=O)N2CCCCC2)c1)c1cccnc1N1CCC2(CC1)CC2` [Example 100-1, N-(3-(piperidin-1-ylsulfonyl)phenyl)-2-(6-azaspiro[2.5]octan-6-yl)nicotinamide], for which the half-inhibitory concentration (IC50) turned out to be 342 nM.

For the compound `O=C(Nc1cccc(S(=O)(=O)C2CCCC2)c1)c1ccncc1N1CCC2(CC1)CC2(F)F` [Example 114-2, N-(3-(cyclopentylsulfonyl)phenyl)-3-(1,1-difluoro-6-azaspiro[2.5]octan-6-yl)isonicotinamide], the IC50 came out at 735 nM.

For the compound `CC(C)(C)NS(=O)(=O)c1cc(NC(=O)c2ccc(NC(C)(C)CO)nc2N2CCC3(CC2)CC3)cc(-c2ccco2)c1` [Example 112, N-(3-(N-(tert-butyl)sulfamoyl)-5-(furan-2-yl)phenyl)-6-((1-hydroxy-2-methylpropan-2-yl)amino)-2-(6-azaspiro[2.5]octan-6-yl)nicotinamide], the IC50 was determined as 170 nM.

`CC(C)(C)NS(=O)(=O)c1cccc(NC(=O)c2ccc(NC3(CO)COC3)nc2N2CCC3(CC2)CC3)c1` [Example 102-27, N-(3-(N-(tert-butyl)sulfamoyl)phenyl)-6-((3-(hydroxymethyl)oxetan-3-yl)amino)-2-(6-azaspiro[2.5]octan-6-yl)nicotinamide]: the IC50 was 80 nM.

Take `CC1(NS(=O)(=O)c2cccc(NC(=O)c3cccnc3N3CCC4(CC3)CC4)c2)CCC1` [Example 101-3, N-(3-(N-(1-methylcyclobutyl)sulfamoyl)phenyl)-2-(6-azaspiro[2.5]octan-6-yl)nicotinamide]: the IC50 turned out to be 189 nM.

With `Cc1ccc(NC(=O)c2cccnc2N2CCC3(CC2)CC3)cc1S(=O)(=O)C1CCCC1` [Example 100-20, N-(3-(cyclopentylsulfonyl)-4-methylphenyl)-2-(6-azaspiro[2.5]octan-6-yl)nicotinamide], the half-maximal inhibitory concentration (IC50) is 279 nM.

For the compound `COc1cc(NC(=O)c2ccc(NC(C)(C)CO)nc2N2CCC3(CC2)CC3)cc(S(=O)(=O)NC(C)(C)C)c1` [Example 105-22, N-(3-(N-(tert-butyl)sulfamoyl)-5-methoxyphenyl)-6-((1-hydroxy-2-methylpropan-2-yl)amino)-2-(6-azaspiro[2.5]octan-6-yl)nicotinamide], the IC50 worked out at 134 nM.

On to `CC(C)(C)NS(=O)(=O)c1cccc(NC(=O)c2ccc(N3CC(C#N)C3)nc2N2CCC3(CC2)CC3)c1` [Example 102-11, N-(3-(N-(tert-butyl)sulfamoyl)phenyl)-6-(3-cyanoazetidin-1-yl)-2-(6-azaspiro[2.5]octan-6-yl)nicotinamide], for which the half-maximal inhibitory concentration (IC50) is 159 nM.

Consider `COCCNc1ccc(C(=O)Nc2cccc(S(=O)(=O)C3CCCC3)c2)c(N2CCC3(CC2)CC3)n1` [Example 103-1, N-(3-(cyclopentylsulfonyl)phenyl)-6-((2-methoxyethyl)amino)-2-(6-azaspiro[2.5]octan-6-yl)nicotinamide], for which the IC50 worked out at 60 nM.

In the case of `O=C(Nc1cccc(S(=O)(=O)C2CCCC2)c1)c1ccc(NCC2(O)CCC2)nc1N1CCC2(CC1)CC2` [Example 103-17, N-(3-(cyclopentylsulfonyl)phenyl)-6-(((1-hydroxycyclobutyl)methyl)amino)-2-(6-azaspiro[2.5]octan-6-yl)nicotinamide], the IC50 was 168 nM.

With `Cc1ccc(NC(=O)c2ccc(NC(C)(C)CO)nc2N2CCC3(CCC3)CC2)cc1S(=O)(=O)C1CCCC1` [Example 105-9, N-(3-(cyclopentylsulfonyl)-4-methylphenyl)-6-((1-hydroxy-2-methylpropan-2-yl)amino)-2-(7-azaspiro[3.5]nonan-7-yl)nicotinamide], the IC50 is 68 nM.

Consider `CC(C)(CO)Nc1ccc(C(=O)Nc2cccc(S(=O)(=O)C3(C)CCC3)c2)c(N2CCC3(CC2)CC3)n1` [Example 105-1, 6-((1-hydroxy-2-methylpropan-2-yl)amino)-N-(3-((1-methylcyclobutyl)sulfonyl)phenyl)-2-(6-azaspiro[2.5]octan-6-yl)nicotinamide], for which the IC50 worked out at 77 nM.

For the compound `COc1ccc(C(=O)Nc2cccc(S(=O)(=O)C3CCCC3)c2)c(N2CCC3(CC2)CC3)n1` [Example 104-1, N-(3-(cyclopentylsulfonyl)phenyl)-6-methoxy-2-(6-azaspiro[2.5]octan-6-yl)nicotinamide], the concentration for half-maximal inhibition (IC50) is 261 nM.

`O=C(Nc1cccc(S(=O)(=O)C2CCCCC2)c1)c1cccnc1N1CCC2(CC1)CC2` [Example 100-23, N-(3-(cyclohexylsulfonyl)phenyl)-2-(6-azaspiro[2.5]octan-6-yl)nicotinamide]: the half-maximal inhibitory concentration (IC50) amounted to 610 nM.

Take `CC1(C)CCN(c2ccc(C(=O)Nc3cccc(S(=O)(=O)NC(C)(C)C)c3)c(N3CCC4(CC3)CC4)n2)C1` [Example 102-1, N-(3-(N-(tert-butyl)sulfamoyl)phenyl)-6-(3,3-dimethylpyrrolidin-1-yl)-2-(6-azaspiro[2.5]octan-6-yl)nicotinamide]: the IC50 came out at 196 nM.

Turning to `CC(C)(C)NS(=O)(=O)c1cccc(NC(=O)c2ccc(N3CCOCC3)nc2N2CCC3(CC2)CC3)c1` [Example 102-7, N-(3-(N-(tert-butyl)sulfamoyl)phenyl)-6-morpholino-2-(6-azaspiro[2.5]octan-6-yl)nicotinamide], the 50% inhibitory concentration (IC50) was 238 nM.

Consider `CC(C)(C)NC(=O)c1cccc(NC(=O)c2ccc(NC(C)(C)CO)nc2N2CCC3(CC2)CC3)c1` [Example 105-25, N-(3-(tert-butylcarbamoyl)phenyl)-6-((1-hydroxy-2-methylpropan-2-yl)amino)-2-(6-azaspiro[2.5]octan-6-yl)nicotinamide], for which the IC50 is 314 nM.

As for `CC(C)(C)NS(=O)(=O)c1cc(Br)cc(NC(=O)c2ccc(NC(C)(C)CO)nc2N2CCC3(CC2)CC3)c1` [Example 105-24, N-(3-bromo-5-(N-(tert-butyl)sulfamoyl)phenyl)-6-((1-hydroxy-2-methylpropan-2-yl)amino)-2-(6-azaspiro[2.5]octan-6-yl)nicotinamide], the IC50 was 143 nM.

`CC(C)(CO)Nc1ccc(C(=O)Nc2cccc(N3CCS(=O)(=O)CC3)c2)c(N2CCC3(CC2)CC3)n1` [Example 105-28, N-(3-(1,1-dioxidothiomorpholino)phenyl)-6-((1-hydroxy-2-methylpropan-2-yl)amino)-2-(6-azaspiro[2.5]octan-6-yl)nicotinamide]: the IC50 worked out at 162 nM.

Take `O=C(Nc1cccc(S(=O)(=O)CC2CC2)c1)c1cccnc1N1CCC2(CC1)CC2` [Example 100-22, N-(3-((cyclopropylmethyl)sulfonyl)phenyl)-2-(6-azaspiro[2.5]octan-6-yl)nicotinamide]: the IC50 amounted to 910 nM.

With `CC(C)(C)NS(=O)(=O)c1cccc(NC(=O)c2ccc(NC(C)(C)CO)nc2N2CCC3(CC2)CC3)c1F` [Example 105-23, N-(3-(N-(tert-butyl)sulfamoyl)-2-fluorophenyl)-6-((1-hydroxy-2-methylpropan-2-yl)amino)-2-(6-azaspiro[2.5]octan-6-yl)nicotinamide], the IC50 was determined as 177 nM.

As for `CC(C)(C)NS(=O)(=O)c1cccc(NC(=O)c2ccc(NS(C)(=O)=O)nc2N2CCC3(CC2)CC3)c1` [Example 110, N-(3-(N-(tert-butyl)sulfamoyl)phenyl)-6-(methylsulfonamido)-2-(6-azaspiro[2.5]octan-6-yl)nicotinamide], the IC50 worked out at 91 nM.

As for `CC(C)(C)NS(=O)(=O)c1cccc(NC(=O)c2ccc(NC3(CO)CCC3)nc2N2CCC3(CC2)CC3)c1` [Example 102-28, N-(3-(N-(tert-butyl)sulfamoyl)phenyl)-6-((1-(hydroxymethyl)cyclobutyl)amino)-2-(6-azaspiro[2.5]octan-6-yl)nicotinamide], the IC50 worked out at 71 nM.
